The record followed here is PubChem BioAssay AID1745844 (Carcinogenic Potency Database (CPDB), 2022).

Active and inactive are the calls of the source. No rule for the calls is given here.

In general, TD50 refers to the dose at which the toxic effect under study appears in half of the subjects.

The data set deals with rodent lifetime carcinogenesis bioassay, tumor incidence TD50. Nature of the data set: chronic cancer bioassays in animals – CPDB, compiled studies (AID 1745844). Conditions: by gavage, dosed 104 weeks, study length 104 weeks.

For the compound `COC1COC(OC2COC(OC3COC(OC4COC(OC)C(OS(=O)(=O)O)C4OS(=O)(=O)O)C(OC4OC(C(=O)O)C(OC)C(OS(=O)(=O)O)C4OS(=O)(=O)O)C3OS(=O)(=O)O)C(OS(=O)(=O)O)C2OS(=O)(=O)O)C(OS(=O)(=O)O)C1OS(=O)(=O)O` (configuration not stated), the TD50 reads like this: (mouse, strain B6C3F1, females, site: all sites, lesion: hemangioma + hemangiosarcoma) 1700 mg/kg/day; (mouse, strain B6C3F1, females, site: all sites, lesion: hemangioma) 4340 mg/kg/day; (mouse, strain B6C3F1, females, site: all sites, lesion: malignant lymphoma) 927 mg/kg/day; (mouse, strain B6C3F1, females, site: any site (literature study), lesion: several types, types named in the paper) 660 mg/kg/day; (mouse, strain B6C3F1, females, site: liver, lesion: hemangiosarcoma + hepatocellular adenoma + hepatocellular carcinoma) 663 mg/kg/day; (mouse, strain B6C3F1, females, site: liver, lesion: hemangiosarcoma) 3160 mg/kg/day. The TD50 (mouse, strain B6C3F1, females, site: liver, lesion: hepatocellular adenoma + hepatoblastoma + hepatocellular carcinoma) worked out at 867 mg/kg/day; the TD50 (mouse, strain B6C3F1, females, site: liver, lesion: hepatocellular adenoma + hepatocellular carcinoma) was 867 mg/kg/day; the TD50 (mouse, strain B6C3F1, females, site: liver, lesion: hepatocellular adenoma) came to 991 mg/kg/day; the TD50 (mouse, strain B6C3F1, males, site: all sites, lesion: hemangiosarcoma) is 1340 mg/kg/day; the TD50 (mouse, strain B6C3F1, males, site: any site (literature study), lesion: several types, types named in the paper) is 297 mg/kg/day; the TD50 (mouse, strain B6C3F1, males, site: liver, lesion: hemangiosarcoma) was 1090 mg/kg/day. Further, the TD50 (mouse, strain B6C3F1, males, site: liver, lesion: hepatocellular adenoma + hepatoblastoma + hepatocellular carcinoma) was 538 mg/kg/day; the TD50 (mouse, strain B6C3F1, males, site: liver, lesion: hepatocellular adenoma + hepatocellular carcinoma) was found to be 499 mg/kg/day; the TD50 (mouse, strain B6C3F1, males, site: lung, lesion: alveolar/bronchiolar adenoma + alveolar/bronchiolar carcinoma) came out at 8000 mg/kg/day; the TD50 (rat, strain Fischer 344, females, site: any site (literature study), lesion: several types, types named in the paper) was 1980 mg/kg/day (inactive). Moreover, the carcinogen call (rat, strain Fischer 344, males, site: any site (literature study), lesion: several types, types named in the paper) was “negative (inactive)”.
